The target of one data set is T1, Cytochrome P450 1A2 (Homo sapiens, UniProt P05177).
T1 sequence (P05177 whole entry): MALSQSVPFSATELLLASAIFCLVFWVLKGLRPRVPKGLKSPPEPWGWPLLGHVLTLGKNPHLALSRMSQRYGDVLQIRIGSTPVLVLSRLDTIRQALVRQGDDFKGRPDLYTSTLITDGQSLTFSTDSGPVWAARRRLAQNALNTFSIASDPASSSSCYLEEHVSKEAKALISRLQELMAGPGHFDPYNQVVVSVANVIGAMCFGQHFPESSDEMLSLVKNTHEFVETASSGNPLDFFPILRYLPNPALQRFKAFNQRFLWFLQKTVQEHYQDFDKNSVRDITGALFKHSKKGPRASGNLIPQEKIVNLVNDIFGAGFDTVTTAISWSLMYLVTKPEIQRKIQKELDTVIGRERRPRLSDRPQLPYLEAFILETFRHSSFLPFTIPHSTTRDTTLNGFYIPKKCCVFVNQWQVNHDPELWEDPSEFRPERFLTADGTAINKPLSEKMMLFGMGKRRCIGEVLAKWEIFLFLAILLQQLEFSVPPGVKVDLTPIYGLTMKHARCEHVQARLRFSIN
In words: Inhibition of recombinant human CYP1A2 expressed in insect cells using EOMCC as substrate pretreated for 10 mins followed by substrate addition measured every minute for 15 mins in presence of NADP+ by fluorescence assay. The data set is classed as ADME.

The target of the next data set is Cytochrome P450 3A4 (Homo sapiens, UniProt P08684). As to the kind of experiment: Inhibition of recombinant human CYP3A4 expressed in insect cells using DBOMF as substrate pretreated for 10 mins followed by substrate addition measured every minute for 15 mins in presence of NADP+ by fluorescence assay. Format: ADME.
The target of data set [1] is T2, CYP1A2 (Homo sapiens, UniProt P05177).
T2 sequence (P05177 whole entry): T1 sequence (P05177 whole entry)
As to the kind of experiment: Inhibition of recombinant human CYP1A2 expressed in insect cells at >1 uM using EOMCC as substrate pretreated for 10 mins followed by substrate addition measured every minute for 15 mins in presence of NADP+ by fluorescence assay relative to control. The data set is classed as ADME. The conditions noted are these: probe EOMCC.

For data set [2], the target named is T3, CYP3A4 (Homo sapiens, UniProt P08684). As to the kind of experiment: Inhibition of recombinant human CYP3A4 expressed in insect cells at 100 uM using DBOMF as substrate pretreated for 10 mins followed by substrate addition measured every minute for 15 mins in presence of NADP+ by fluorescence assay relative to control. The data set is classed as ADME. As to conditions: probe DBOMF.

The target in data set [3] is T2, CYP1A2. As to the kind of experiment: Inhibition of recombinant human CYP1A2 expressed in insect cells at <10 uM using EOMCC as substrate pretreated for 10 mins followed by substrate addition measured every minute for 15 mins in presence of NADP+ by fluorescence assay relative to control. Format: ADME. As to conditions: probe EOMCC.
Data set [4] deals with T3, CYP3A4. In words: Inhibition of recombinant human CYP3A4 expressed in insect cells at >= 1 uM using DBOMF as substrate pretreated for 10 mins followed by substrate addition measured every minute for 15 mins in presence of NADP+ by fluorescence assay relative to control. The conditions noted are these: probe DBOMF.
The target in data set [5] is T2, CYP1A2. In words: Inhibition of recombinant human CYP1A2 expressed in insect cells at 1 uM using EOMCC as substrate pretreated for 10 mins followed by substrate addition measured every minute for 15 mins in presence of NADP+ by fluorescence assay relative to control. The conditions noted are these: probe EOMCC.
The target of data set [6] is T2, CYP1A2. As to the kind of experiment: Inhibition of recombinant human CYP1A2 expressed in insect cells at 10 uM using EOMCC as substrate pretreated for 10 mins followed by substrate addition measured every minute for 15 mins in presence of NADP+ by fluorescence assay relative to control. The conditions noted are these: probe EOMCC.
Data set [7] concerns the target T2, CYP1A2. As to the kind of experiment: Inhibition of recombinant human CYP1A2 expressed in insect cells at 20 uM using EOMCC as substrate pretreated for 10 mins followed by substrate addition measured every minute for 15 mins in presence of NADP+ by fluorescence assay relative to control. The conditions noted are these: probe EOMCC.
Data set [8] concerns the target T2, CYP1A2. In words: Inhibition of recombinant human CYP1A2 expressed in insect cells at 0.01 uM using EOMCC as substrate pretreated for 10 mins followed by substrate addition measured every minute for 15 mins in presence of NADP+ by fluorescence assay relative to control. As to conditions: probe EOMCC.

Structures are written as SMILES.

T3 sequence (P08684 whole entry): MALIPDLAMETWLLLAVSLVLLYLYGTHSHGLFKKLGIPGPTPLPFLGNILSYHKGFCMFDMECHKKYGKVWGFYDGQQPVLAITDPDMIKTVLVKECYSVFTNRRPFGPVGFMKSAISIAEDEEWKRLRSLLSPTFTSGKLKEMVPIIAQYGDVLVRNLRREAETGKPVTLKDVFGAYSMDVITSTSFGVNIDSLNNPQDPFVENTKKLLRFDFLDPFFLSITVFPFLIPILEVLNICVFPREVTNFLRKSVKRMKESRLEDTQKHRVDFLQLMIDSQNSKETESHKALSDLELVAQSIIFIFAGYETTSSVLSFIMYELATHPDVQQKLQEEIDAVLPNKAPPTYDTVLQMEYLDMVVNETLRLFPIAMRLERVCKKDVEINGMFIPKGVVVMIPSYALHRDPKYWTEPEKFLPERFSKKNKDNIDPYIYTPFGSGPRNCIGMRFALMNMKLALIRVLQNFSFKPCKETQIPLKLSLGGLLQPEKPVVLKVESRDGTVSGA
Cytochrome P450 3A4, sequence (P08684 whole entry): as above

A word on the IC50: it is the point on the concentration scale where inhibition reaches its midpoint. As usually defined, the inhibition is the share of the control response that was lost under treatment. Consider `Clc1ccc2c(NCc3ccccn3)c3c(nc2c1)CCCC3`, for which the 50% inhibitory concentration (IC50) at Cytochrome P450 1A2 came to 0.24 µM; at Cytochrome P450 3A4, 9.1 µM. Further, the inhibition at 0.25 h at CYP1A2 [1] was > 80%. The inhibition at 0.25 h, 100 µM on CYP3A4 [2] turned out to be 90%.
For `COc1ccc(CNc2c3c(nc4ccccc24)CCCC3)cc1OC`, the results for the IC50 at Cytochrome P450 1A2 and at Cytochrome P450 3A4 were 33 µM and 3.7 µM, respectively. The inhibition at 0.25 h at CYP1A2 [3] is < 50%. Further, the inhibition at 0.25 h, 100 µM on CYP3A4 [2] was 90%.
For `CC(=O)N1CCN(c2ccc(OCC3COC(Cn4ccnc4)(c4ccc(Cl)cc4Cl)O3)cc2)CC1` (configuration not stated) [KETOCONAZOLE], the inhibition at 0.25 h at CYP3A4 [4] is > 85%.
As to `COc1ccc(CCNc2c3c(nc4cc(Cl)ccc24)CCCC3)cc1OC`, the IC50 on Cytochrome P450 1A2 is 22.3 µM. Also, the inhibition at 0.25 h on CYP1A2 [3] was < 50%.
Consider `COc1ccc(CNc2c3c(nc4cc(Cl)ccc24)CCCC3)cc1OC`, for which the IC50 is 8.5 µM on Cytochrome P450 1A2 and 13.8 µM at Cytochrome P450 3A4. In addition, the inhibition at 0.25 h on CYP1A2 [3] is < 50%. Moreover, the inhibition at 0.25 h, 100 µM at CYP3A4 [2] worked out at 90%.
With `O=c1cc(-c2ccccc2)oc2c1ccc1ccccc12` [ALPHA-NAPHTHOFLAVONE], the inhibition at 0.25 h, 1 µM on CYP1A2 [5] was > 80%.
Regarding `Nc1c2c(nc3ccccc13)CCCC2` [TACRINE], on Cytochrome P450 1A2, the half-maximal inhibitory concentration (IC50) was 1.5 µM. Moreover, the inhibition at 0.25 h, 1 µM on CYP1A2 [5] was determined as 45%. Moreover, at CYP1A2 [6], the inhibition at 0.25 h, 10 µM was found to be 75%. At CYP1A2 [7], the inhibition at 0.25 h, 20 µM was found to be 75%. Besides, the inhibition at 0.25 h, 0.01 µM at CYP1A2 [8] turned out to be 14%. The inhibition at 0.25 h, 100 µM at CYP3A4 [2] was found to be 55%.

Source of the values: ChEMBL document CHEMBL4017465 (Bioorg Med Chem Lett, 2017).
